# Measured values: ChEMBL document CHEMBL5321229, “Conformationally locked sugar derivatives and analogues as potential neuraminidase inhibitors” (Eur J Med Chem, 2023)
# Biological target: Neuraminidase (Influenza A virus (A/Memphis/1/1971(H3N2)), UniProt P03471, E119V)
# Experiment: Inhibition of influenza A virus H3N2 (A/Moscow/10/99) harboring E119V mutant neuraminidase using MUNANA as substrate preincubated for 30 mins followed by substrate addition by fluorescence-based assay
smiles,measurement,value
CCC(CC)O[C@@H]1C=C(C(=O)O)C[C@H](n2nncc2-c2cccc(N)c2)[C@H]1NC(C)=O,IC50,790 nM
